Data taken from publication PMC11087268, “A folate inhibitor exploits metabolic differences in Pseudomonas aeruginosa for narrow-spectrum targeting” (Nature Microbiology, 2024).

Test system: P. aeruginosa PA14
Assay: Growth of P. aeruginosa PA14 in TMI-supplemented media with fluorofolin; note: test concentration or dose not given here
Assay type: cell-based, Pseudomonas aeruginosa

Nc1nc(N)c2c(ccc3c2ccn3Cc2ccnc(F)c2)n1 [fluorofolin]
OD600 of P. Aeruginosa PA14 (Fluorofolin + TMI, Time 0 min): 0.00375
OD600 of P. Aeruginosa PA14 (Fluorofolin + TMI, Time 64.0617 min): 0.00775
OD600 of P. Aeruginosa PA14 (Fluorofolin + TMI, Time 74.7383 min): 0.00825
OD600 of P. Aeruginosa PA14 (Fluorofolin + TMI, Time 85.415 min): 0.0086
OD600 of P. Aeruginosa PA14 (Fluorofolin + TMI, Time 96.0917 min): 0.0088
OD600 of P. Aeruginosa PA14 (Fluorofolin + TMI, Time 106.768 min): 0.00895
OD600 of P. Aeruginosa PA14 (Fluorofolin + TMI, Time 117.445 min): 0.00965
OD600 of P. Aeruginosa PA14 (Fluorofolin + TMI, Time 128.123 min): 0.00995
OD600 of P. Aeruginosa PA14 (Fluorofolin + TMI, Time 138.8 min): 0.0106
OD600 of P. Aeruginosa PA14 (Fluorofolin + TMI, Time 149.477 min): 0.01185
OD600 of P. Aeruginosa PA14 (Fluorofolin + TMI, Time 160.153 min): 0.0109
OD600 of P. Aeruginosa PA14 (Fluorofolin + TMI, Time 170.83 min): 0.01125
OD600 of P. Aeruginosa PA14 (Fluorofolin + TMI, Time 181.507 min): 0.01245
OD600 of P. Aeruginosa PA14 (Fluorofolin + TMI, Time 192.183 min): 0.01295
OD600 of P. Aeruginosa PA14 (Fluorofolin + TMI, Time 202.86 min): 0.0136
OD600 of P. Aeruginosa PA14 (Fluorofolin + TMI, Time 213.537 min): 0.01355
OD600 of P. Aeruginosa PA14 (Fluorofolin + TMI, Time 224.213 min): 0.01385
OD600 of P. Aeruginosa PA14 (Fluorofolin + TMI, Time 234.89 min): 0.0143
OD600 of P. Aeruginosa PA14 (Fluorofolin + TMI, Time 245.567 min): 0.0154
OD600 of P. Aeruginosa PA14 (Fluorofolin + TMI, Time 256.243 min): 0.01575
OD600 of P. Aeruginosa PA14 (Fluorofolin + TMI, Time 266.922 min): 0.0155
OD600 of P. Aeruginosa PA14 (Fluorofolin + TMI, Time 277.598 min): 0.0159
OD600 of P. Aeruginosa PA14 (Fluorofolin + TMI, Time 288.275 min): 0.01755
OD600 of P. Aeruginosa PA14 (Fluorofolin + TMI, Time 298.952 min): 0.01775
OD600 of P. Aeruginosa PA14 (Fluorofolin + TMI, Time 309.628 min): 0.01825
OD600 of P. Aeruginosa PA14 (Fluorofolin + TMI, Time 320.305 min): 0.0182
OD600 of P. Aeruginosa PA14 (Fluorofolin + TMI, Time 330.982 min): 0.0183
OD600 of P. Aeruginosa PA14 (Fluorofolin + TMI, Time 341.658 min): 0.0174
OD600 of P. Aeruginosa PA14 (Fluorofolin + TMI, Time 352.335 min): 0.01685
OD600 of P. Aeruginosa PA14 (Fluorofolin + TMI, Time 363.012 min): 0.01765
OD600 of P. Aeruginosa PA14 (Fluorofolin + TMI, Time 373.688 min): 0.01775
OD600 of P. Aeruginosa PA14 (Fluorofolin + TMI, Time 384.365 min): 0.01795
OD600 of P. Aeruginosa PA14 (Fluorofolin + TMI, Time 395.042 min): 0.01805
OD600 of P. Aeruginosa PA14 (Fluorofolin + TMI, Time 405.718 min): 0.01805
OD600 of P. Aeruginosa PA14 (Fluorofolin + TMI, Time 416.395 min): 0.01825
OD600 of P. Aeruginosa PA14 (Fluorofolin + TMI, Time 427.072 min): 0.01805
OD600 of P. Aeruginosa PA14 (Fluorofolin + TMI, Time 437.748 min): 0.01825
OD600 of P. Aeruginosa PA14 (Fluorofolin + TMI, Time 448.425 min): 0.018
OD600 of P. Aeruginosa PA14 (Fluorofolin + TMI, Time 459.102 min): 0.0175
OD600 of P. Aeruginosa PA14 (Fluorofolin + TMI, Time 469.78 min): 0.01855
OD600 of P. Aeruginosa PA14 (Fluorofolin + TMI, Time 480.457 min): 0.0181
OD600 of P. Aeruginosa PA14 (Fluorofolin + TMI, Time 491.133 min): 0.01785
OD600 of P. Aeruginosa PA14 (Fluorofolin + TMI, Time 501.81 min): 0.01825
OD600 of P. Aeruginosa PA14 (Fluorofolin + TMI, Time 512.487 min): 0.0184
OD600 of P. Aeruginosa PA14 (Fluorofolin + TMI, Time 523.163 min): 0.01965
OD600 of P. Aeruginosa PA14 (Fluorofolin + TMI, Time 533.84 min): 0.0189
OD600 of P. Aeruginosa PA14 (Fluorofolin + TMI, Time 544.517 min): 0.0184
OD600 of P. Aeruginosa PA14 (Fluorofolin + TMI, Time 555.193 min): 0.01805
OD600 of P. Aeruginosa PA14 (Fluorofolin + TMI, Time 565.87 min): 0.0187
OD600 of P. Aeruginosa PA14 (Fluorofolin + TMI, Time 576.547 min): 0.01815
OD600 of P. Aeruginosa PA14 (Fluorofolin, Time 0 min): -0.00105
OD600 of P. Aeruginosa PA14 (Fluorofolin, Time 64.0617 min): 0.00425
OD600 of P. Aeruginosa PA14 (Fluorofolin, Time 74.7383 min): 0.0047
OD600 of P. Aeruginosa PA14 (Fluorofolin, Time 85.415 min): 0.00495
OD600 of P. Aeruginosa PA14 (Fluorofolin, Time 96.0917 min): 0.00565
OD600 of P. Aeruginosa PA14 (Fluorofolin, Time 106.768 min): 0.006
OD600 of P. Aeruginosa PA14 (Fluorofolin, Time 117.445 min): 0.0073
